Entries after “also recorded” stand apart in the source; their conditions may differ. Where two headings read alike, the source gives them in different places. One block for each substance: values may come before it. Where no end group is shown, it is not given here.
Experiments:
[1] = target: T1, CD44/MMP-9 heterodimer (Homo sapiens, UniProt P16070); experiment: Co-immunoprecipitation assay of CD44/MMP-9 complex formation in transfected COS-1 cells; format: cell-based; details: COS-1 cells transfected with CD44 and MMP-9 cDNAs, peptides for 30 minutes
T1 construct: The MMP-9 cDNA containing the open reading frame of MMP-9 was amplified by a PCR approach; expressed in transfected cells; host or cells: COS-1 monkey kidney epithelial cells
T1 sequence (P16070 21-742, one chain of several): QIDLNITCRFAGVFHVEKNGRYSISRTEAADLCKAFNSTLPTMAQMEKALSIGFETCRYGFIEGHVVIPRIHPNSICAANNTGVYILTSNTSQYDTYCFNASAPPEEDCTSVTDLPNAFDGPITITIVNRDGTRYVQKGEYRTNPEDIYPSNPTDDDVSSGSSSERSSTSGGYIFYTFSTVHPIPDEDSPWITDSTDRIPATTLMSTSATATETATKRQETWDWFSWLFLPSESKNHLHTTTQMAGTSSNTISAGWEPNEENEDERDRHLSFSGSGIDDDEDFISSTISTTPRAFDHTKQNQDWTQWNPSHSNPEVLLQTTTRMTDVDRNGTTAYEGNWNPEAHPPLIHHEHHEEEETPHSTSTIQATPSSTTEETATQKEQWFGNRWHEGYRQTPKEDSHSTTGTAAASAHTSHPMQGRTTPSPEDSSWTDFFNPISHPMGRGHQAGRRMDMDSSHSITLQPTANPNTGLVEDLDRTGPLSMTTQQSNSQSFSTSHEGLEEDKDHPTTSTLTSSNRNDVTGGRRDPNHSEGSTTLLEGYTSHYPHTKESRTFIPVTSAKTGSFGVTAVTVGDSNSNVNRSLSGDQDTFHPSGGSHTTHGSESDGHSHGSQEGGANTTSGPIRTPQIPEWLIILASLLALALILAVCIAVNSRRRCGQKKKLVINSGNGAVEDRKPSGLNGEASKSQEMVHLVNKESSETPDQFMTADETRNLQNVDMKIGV
Description: (§1) Procedures for Gelatin Substrate Zymography, Immunoblotting, Immunoprecipitation, Transwell Chamber Cell Migration and Phagokinetic Cell Migration Assays
(§2) Basic protocols for these techniques have been described previously (Cao et al., 1996; Dufour et al., 2008).
To further examine the importance of cross-talk between CD44 and MMP-9 in cell migration, an 8-amino acids peptide (SRPQGPFL) (SEQ ID NO: 2) was synthesized to mimic the outermost β-strand of the first blade of the MMP-9 PEX domain (IS4 peptide). As a control, a scrambled peptide with the same amino acids but rearranged in different order (GLSQPRFP) (SEQ ID NO: 35) was synthesized. COS-1 cells transfected with CD44 and MMP-9 cDNAs were treated with IS4 and IS4 scrambled peptides for 30 minutes followed by monitoring complex formations between CD44 and MMP-9 using a co-immunoprecipitation assay.

[2] = system: cell migration induced by MT1-MMP; experiment: Transwell migration assay, cell migration induced by MT1-MMP; format: cell-based
Description: (§3) One approach to blunt MMP-9 induced cell migration might be to target the herein discovered homodimer formation, which is a prerequisite for MMP-9-induced cell migration. Given the observation that the outermost β-strand of the fourth blade of the MMP-9 PEX domain is required for MMP-9 homodimerization formation, an 8-amino acids peptide (NQVDQVGY) (SEQ ID NO: 1) was synthesized to mimic the outer β-strand of blade IV of MMP-9 PEX domain (IVS4 peptide). As a control, a scrambled peptide with the same amino acids but rearranged in different order (VQYDNGQV) (SEQ ID NO: 51) was designed and synthesized. To test if IVS4 peptide blocked MMP-9 homodimer formation, COS-1 cells transfected with MMP-9 cDNA were treated with peptides for 30 minutes followed by a co-immunoprecipitation assay. […] To examine the potential therapeutic effect of this peptide, a transwell migration assay was performed. […] This IVS4 peptide, however, had no effect on cell migration induced by MT1-MMP, an integral membrane matrix metalloproteinase capable of stimulating cell migration (Cao et al., 2004).

[3] = system: HT1080 cells; experiment: Transwell chamber migration assay, HT1080 cells expressing endogenous MMP-9; format: cell-based, human; details: 100 μM peptide, 6 h at 37° C.
Protocol: Human fibrosarcoma HT1080 cells are highly invasive and metastatic. […] Since this cell line produces endogenous MMP-9, the inventors sought to test if the MMP-9 IS4 and IVS4 peptides can be used to interfere with function of endogenous MMP-9. To this end, HT1080 cells were employed and cell migratory ability was evaluated using a Transwell chamber migration assay (FIG. 11). The cells were incubated with 100 μM of IS4 peptide (SRPQGPFL) (SEQ ID NO: 2), IS4 scrambled peptide (GLSQPRFP) (SEQ ID NO: 35), IVS4 peptide (NQVDQVGY) (SEQ ID NO: 1), IVS4 scrambled peptide (VQYDNGQV) (SEQ ID NO: 51), and a combination of IS4 and IVS4 peptides for 6 h at 37° C. 1% DMSO was used as a vehicle control. Migrated cells were microscopically counted. Each data point was performed in triplicate and the experiment was repeated three times (*P<0.05). […] While not limiting the invention to any particular mechanism, it is the inventors' view that this is potentially because both inhibitory peptides target the same molecule.

[4] = system: MMP-9-induced cell migration of transfected COS-1 cells; details: for MMP-9-induced cell migration: transwell chamber migration assay for 6 hours, MMP-9 transfected COS-1 cells
Protocol: (P-values reflect comparison with MMP-9 transfected cells: *P<0.05). […] COS-1 cells transfected with an empty vector or MMP-9 cDNAs were examined by a transwell chamber migration assay for 6 hours in the presence of DMSO control, specific and scramble peptides at different concentration. Each data point was performed in triplicate and the experiments was repeated three times (*P<0.05).
Transfection of plasmid DNA in COS-1 cells was achieved using polyethylenimine (Polysciences) or Transfectin™ reagents (Bio-Rad) and the transfected cells were incubated for 48 h at 37° C. followed by biochemical and biological assays.

[5] = target: T2, MMP-9 homodimer (Homo sapiens, UniProt P14780); experiment: Co-immunoprecipitation assay of MMP-9 homodimer formation in transfected COS-1 cells; format: cell-based
T2 construct: The MMP-9 cDNA containing the open reading frame of MMP-9 was amplified by a PCR approach; by a site-directed mutagenesis approach using wild type MMP-9 as a template; expressed in transfected cells; host or cells: COS-1 monkey kidney epithelial cells
T2 sequence (P14780 20-707 limits assumed): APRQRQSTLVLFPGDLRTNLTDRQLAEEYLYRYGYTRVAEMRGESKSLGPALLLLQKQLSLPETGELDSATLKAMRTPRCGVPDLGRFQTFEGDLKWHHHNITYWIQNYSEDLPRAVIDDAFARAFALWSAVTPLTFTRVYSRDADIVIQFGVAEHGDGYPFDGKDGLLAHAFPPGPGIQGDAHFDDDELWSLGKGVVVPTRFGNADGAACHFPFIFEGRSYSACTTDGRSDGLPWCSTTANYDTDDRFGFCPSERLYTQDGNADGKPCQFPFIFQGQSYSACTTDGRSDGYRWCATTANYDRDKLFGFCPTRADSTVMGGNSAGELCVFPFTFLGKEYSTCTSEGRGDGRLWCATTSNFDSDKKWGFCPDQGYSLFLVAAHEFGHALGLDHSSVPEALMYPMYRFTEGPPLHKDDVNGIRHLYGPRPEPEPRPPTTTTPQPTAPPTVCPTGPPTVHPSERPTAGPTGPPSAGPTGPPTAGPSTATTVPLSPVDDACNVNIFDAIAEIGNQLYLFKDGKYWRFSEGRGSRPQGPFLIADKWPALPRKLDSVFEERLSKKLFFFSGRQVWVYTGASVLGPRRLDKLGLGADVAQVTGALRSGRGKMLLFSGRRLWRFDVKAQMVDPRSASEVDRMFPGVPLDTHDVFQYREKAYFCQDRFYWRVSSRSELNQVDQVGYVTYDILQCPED
Description: as §1, §2
COS-1 cells co-transfected with HA- and Myc-tagged MMP-9 cDNAs were then employed to examine homodimer formation using a co-immunoprecipitation approach. The HA-tagged MMP-9 proteins in the conditioned medium of transfected COS-1 cells were immunoprecipitated with anti-HA antibodies followed by a western blotting probed by anti-Myc antibodies. […] To further confirm this observation, the reciprocal co-immunoprecipitation was performed. Anti-Myc antibodies were employed to precipitate Myc-tagged MMP-9 complexes in the conditioned medium of co-transfected COS-1 cells followed by western blotting using anti-HA antibodies. This reciprocal approach confirms that MMP-9 does form a homodimer in the condition medium of transfected COS-1 cells.
as §3

[6] = system: MMP9/PEXMMP-2/Myc transfected COS-1 cells; experiment: Transwell migration assay, COS-1 cells transfected with MMP9/PEXMMP-2/Myc; format: cell-based, monkey; details: co-expression of TIMP
Description: FIG. 3. TIMP-1 interferes with MMP-9 homodimerization. (A) TIMP-1, but not TIMP-2 interferes with MMP-9 dimerization in transfected COS-1 cells examined by a co-immunoprecipitation assay for conditioned medium and cell lysates (upper and middle panels), and immunoblotting for α/β tubulin (lower panel, loading control). (B) TIMP-1 co-precipitated with MMP-9 in both the lysate and the conditioned medium of transfected COS-1 cells examined by a co-immunoprecipitation assay. (C) MMP-9 chimera substituting the PEX domain with the corresponding MMP-2 interacts with TIMP-2 in transfected COS-1 cells, but not wild type MMP-9. (D) COS-1 cells transfected with corresponding cDNAs were subjected to a transwell migration assay. Three triplicated repeats were performed for each transfection. *P<0.05.
The role of TIMP-1 in interfering with MMP-9 homodimer formation remains controversial (Goldberg et al., 1992; Olson et al., 2000). This discrepancy led us to reevaluate the specific interference of TIMP-1 on proMMP-9 homodimer formation using the biochemical approach described above. […]

CD44/MMP-9 heterodimer formation [1]: minimal effect
Substance: GLSQPRFP [IS4 scrambled peptide, control scrambled peptide with the same amino acids as IS4 rearranged in different order, reference compound]

MMP-9 homodimer formation ([5]; COS-1 cells transfected with MMP-9 cDNA, treated with peptides for 30 minutes, co-immunoprecipitation): efficiently blocked | MMP-9 homodimer formation ([5]; COS-1 cells transfected with MMP-9 cDNA, treated with peptides for 30 minutes, co-immunoprecipitation, listed as IVS4): abrogates
Substance: NQVDQVGY [IVS4 peptide, NQVDQVGY]
cell migration induced by MT1-MMP [2]: no effect | HT1080 cell migration [3]: significantly reduced; also recorded: efficiently reduced | IC50 [4]: 50 µM | MMP-9-induced cell migration [4]: inhibited MMP-9-induced cell migration in a dose-dependent manner | MMP-9-induced cell migration ([4]; listed as IVS4): efficiently reduced | MMP-9-induced cell migration ([4]; listed as IVS4 peptides): Dose dependent inhibition

CD44/MMP-9 heterodimer formation [1]: interferes
Substance: SRPQGPFL [IS4 peptide, SRPQGPFL]
HT1080 cell migration ([3]; listed as IS4): significantly reduced; also recorded: efficiently reduced | IC50 [4]: 12 µM | MMP-9-induced cell migration [4]: dose-dependent inhibition | MMP-9-induced cell migration ([4]; listed as IS4): efficiently reduced | MMP-9-induced cell migration ([4]; listed as IS4 peptides): Dose-dependent inhibition

MMP-9 homodimer formation ([5]; co-expression of TIMP cDNA with proMMP-9/Myc and proMMP-9/HA cDNAs in COS-1 cells, conditioned media and cell lysate): interferes; also recorded: blocking
Substance: TIMP-1: tissue inhibitor of metalloproteinases, co-expressed from cDNA in COS-1 cells
MMP9/PEXMMP-2/Myc enhancement of COS-1 cell migration [6]: no apparent effect; also recorded: did not significantly inhibit

Reference: patent US20130012451A1, “COMPOSITIONS AND METHODS FOR INHIBITING MMP-9-MEDIATED CELL MIGRATION” (The Research Foundation of State University of New York, priority 2009, published 2013)
